{
  "source": "patent US12281060B2",
  "about": "“Remodilins for airway remodeling and organ fibrosis” (The University of Chicago, priority 2019, dated 2025)",
  "key": {"[1]": {"experiment": "Plasma pharmacokinetics and tissue distribution (liver, lung, thyroid) after single oral doses", "assay_type": "in vivo", "conditions": "after oral administration, 10 or 50 mg/kg; male C57Bl/6 mice", "experimental": "Studies were performed to characterize plasma pharmacokinetics (PK) and tissue distribution (liver, lung, thyroid) of 5 potential lead candidates in male C57Bl/6 mice receiving single oral doses of 10 mg/kg or 50 mg/kg."}, "HDM-treated Balb/c mice [2]": {"test_system": "HDM-treated Balb/c mice", "experiment": "HDM-induced airway remodeling, MYH11 immunostain-positive airway smooth muscle area", "assay_type": "in vivo", "conditions": "12.5 mg/kg BID IP, HDM model, female Balb/c mice, large airways, vs 20% Solutol vehicle", "experimental": "(§1) FIGS. 4A-4B. Effect of remodilin treatment (remodilin 83, 12.5 mg/kg BID IP) on airway constrictor hyperresponsiveness and remodeling induced by house dust mite (HDM) exposure in female Balb/c mice. FIG. 4A Airway constrictor hyperresponsiveness methacholine dose-response curves for mice treated with remodilin 83 or 20% Solutol (vehicle).\nFurthermore, three-way analysis of variance (Ctrl vs HDM, Female vs Male, Small vs Large Airways) confirmed that the HDM influence on airway remodeling was significant at P=0.0007.\n(§2) As depicted in FIG. 4A, twice-daily intraperitoneal administration of remodilins (12.5 mg/kg) was evaluated."}, "bleomycin-treated mice": {"test_system": "bleomycin-treated mice", "experiment": "Bleomycin-induced lung fibrosis in mice", "assay_type": "in vivo", "conditions": "25 mg/kg QD IP", "experimental": "FIGS. 8A-8B. Treatment with remodilin 83 (25 mg/kg QD IP) reduced pulmonary fibrosis in bleomycin-treated mice. Remodilin or vehicle (DMSO) was given on days 7-21 after i.t. bleomycin (1 U/kg). Both lung hydroxyproline (FIG. 8A) and collagen levels (FIG. 8B) were lower in remodilin 83-treated mice than in control mice.\nBoth lung hydroxyproline (FIG. 8A) and collagen levels (FIG. 8B) were lower in remodilin 83-treated mice (systemically-administered) than in control mice."}, "HDM-treated Balb/c mice [3]": {"test_system": "HDM-treated Balb/c mice", "experiment": "HDM-induced airway constrictor hyperresponsiveness, methacholine challenge", "assay_type": "in vivo", "conditions": "12.5 mg/kg BID IP; HDM model, female Balb/c mice; vs 20% Solutol vehicle", "experimental": "as §1\nA mouse model of acute allergic asthma was used in which mice were sensitized with house dust mite (HDM) extracts. […] As depicted in FIGS. 1A and 1B, male and female Balb/c mice treated with HDM were subjected to methacholine challenge. […] The area under the curve increased by at least 3.6-fold in each sex.\nas §2"}, "[4]": {"test_system": "serum response factor (SRF)", "experiment": "Luciferase reporter assay of TGFβ-stimulated SRF activation", "assay_type": "cell-based, human", "text": "FIGS. 6A-6B. Remodilins inhibit myofibroblast transformation. Remodilin 4 inhibits TGFβ-stimulated serum response factor (SRF) activation (FIG. 6B) but not Smad signaling (FIG. 6A), as determined using luciferase reporter assays.\nIt is well-established that myofibroblast transformation (MFT) is a critical step in the development of pulmonafy fibrisos. […] Maintenance of Smad signaling can preserve other beneficial effects of TGFβ. As depicted in FIG. 7, four remodilins inhibited smooth muscle ACTA2 and fibronectin-1 (FN1) protein expression (markers of MFT) in dose-dependent fashion."}, "[5]": {"conditions": "days 7-21 after i.t. bleomycin, vs control mice"}},
  "note": "Entries after “also recorded” stand apart in the source; their conditions may differ.",
  "data": [
    {"smiles": "COc1ccc(C(=O)Nc2ccc(S(=O)(=O)N3CCCCC3C)cc2)cc1I", "note": "(stereo not drawn) [remodilin 39, 3-Iodo-4-methoxy-N-(4-((2-methylpiperidin-1-yl)sulfonyl)phenyl) benzamide]", "values": [
      {"measurement": "accumulation in lung vs. other tissues (liver, thyroid) or plasma", "setting": "[1]", "value": "selective accumulation"}
    ]},
    {"smiles": "O=C(Nc1ccc(S(=O)(=O)N2CCCC2)cc1)c1ccc(Br)c(I)c1", "note": "[remodilin 50, 4-Bromo-3-iodo-N-(4-(pyrrolidin-1-ylsulfonyl)phenyl)benzamide]", "values": [
      {"measurement": "accumulation in lung vs. other tissues (liver, thyroid) or plasma", "setting": "[1]", "value": "selective accumulation"}
    ]},
    {"smiles": "CC1CN(S(=O)(=O)c2ccc(NC(=O)c3ccc(Br)c(I)c3)cc2)CCN1", "note": "(stereo not drawn) [remodilin 83, 4-Bromo-3-iodo-N-(4-((3-methylpiperazin-1-yl)sulfonyl)phenyl)benzamide]", "values": [
      {"measurement": "MYH11 immunostain-positive airway smooth muscle area normalized to epithelial length", "setting": "HDM-treated Balb/c mice [2]", "value": "significantly lower"},
      {"measurement": "MYH11 immunostain-positive airway smooth muscle area normalized to epithelial length", "setting": "HDM-treated Balb/c mice [2]; listed as Remodilin 83", "value": "significantly lowered"},
      {"measurement": "pulmonary fibrosis (bleomycin-induced)", "setting": "bleomycin-treated mice; days 7-21 after i.t. bleomycin 1 U/kg, vs DMSO vehicle", "value": "inhibitory activity; also recorded: reduced"},
      {"measurement": "lung collagen levels", "setting": "bleomycin-treated mice; [5]", "value": "lower"},
      {"measurement": "lung hydroxyproline", "setting": "bleomycin-treated mice; [5]", "value": "lower"},
      {"measurement": "accumulation in lung vs. other tissues (liver, thyroid) or plasma", "setting": "[1]", "value": "higher concentrations in lung; also recorded: selective accumulation"},
      {"measurement": "development of airway constrictor hyperresponsiveness", "setting": "HDM-treated Balb/c mice [3]", "value": "significantly blunted"}
    ]},
    {"smiles": "CC1CNCCN1S(=O)(=O)c1ccc(NC(=O)c2ccc(Br)c(I)c2)cc1", "note": "(stereo not drawn) [remodilin 86, 4-Bromo-3-iodo-N-(4-((2-methylpiperazin-1-yl)sulfonyl)phenyl)benzamide]", "values": [
      {"measurement": "accumulation in lung vs. other tissues (liver, thyroid) or plasma", "setting": "[1]", "value": "higher concentrations in lung; also recorded: selective accumulation"}
    ]},
    {"smiles": "COc1ccc(C(=O)Nc2ccc(S(=O)(=O)N3CCNCC3)cc2)cc1I", "note": "[remodilin 61, 3-Iodo-4-methoxy-N-(4-(piperazin-1-ylsulfonyl)phenyl)benzamide]", "values": [
      {"measurement": "accumulation in lung vs. other tissues (liver, thyroid) or plasma", "setting": "[1]", "value": "higher concentrations in lung; also recorded: selective accumulation"}
    ]},
    {"smiles": "CCN(CC)S(=O)(=O)c1ccc(NC(=O)c2ccc(OC)c(I)c2)cc1", "note": "[remodilin 4, N-(4-(N,N-diethylsulfamoyl)phenyl)-3-iodo-4-methoxybenzamide]", "values": [
      {"measurement": "TGFβ-stimulated serum response factor (SRF) activation", "setting": "[4]", "value": "inhibits"}
    ]}
  ]
}
